Assay results from PubChem BioAssay AID1996.
Converted amounts (≈) assume the structure as drawn.

Conditions: buffer; pH 7.4; 200.0 µM
For COc1ccc(NC(=O)c2cccs2)cn1, the solubility kinetic was over 35.1 µg/mL.
Work on Cc1ccc(O)c(NC(=O)c2onc(C)c2Cl)c1 yielded a solubility kinetic of 6.2 µg/mL (≈ 23.2 µM).
Cc1ccc(OCc2ccccc2C)c([N+](=O)[O-])n1 showed a solubility kinetic of 18.4 µg/mL (≈ 71.2 µM).
COc1ccccc1NC(=O)Nc1cccnc1 showed a solubility kinetic of 34.6 µg/mL (≈ 142 µM).
COc1ccc2c(C#N)c3ccccn3c2c1 showed a solubility kinetic of 0.9 µg/mL (≈ 4.05 µM).
Molecule CN1C(=O)c2ccc(NC(=O)c3ccc(Cl)cc3Cl)cc2C1=O has a solubility kinetic of 2.1 µg/mL (≈ 6.01 µM).
COc1ccc(COC(=O)C2=C(C)NC(=O)NC2c2ccc(F)cc2)cc1 (centres undefined) gave a solubility kinetic of 3 µg/mL (≈ 8.1 µM).
Work on CCN1CCN(S(=O)(=O)c2ccc3c4c(cccc24)C(=O)N3CC)CC1 yielded a solubility kinetic of over 56 µg/mL.
In the case of CC(C)(C)c1ccc(C(CC(=O)O)NC(=O)Cc2ccccc2)cc1 (centres undefined), the solubility kinetic is reported as 49.3 µg/mL (≈ 145 µM).
In the case of CC(=O)N1CCN(C(=O)c2ccc3c(c2)OCCO3)CC1, the solubility kinetic is reported as over 43.5 µg/mL.
For O=C1CNC(=S)N1CCc1ccc(O)c(O)c1, the solubility kinetic was 32.3 µg/mL (≈ 128 µM).
Work on O=C1CS(=O)(=O)c2ccccc2N1 yielded a solubility kinetic of over 29.6 µg/mL.
Work on CCC(=O)Nc1cccc(C(=O)c2ccc(C)c(C)c2)c1 yielded a solubility kinetic of 28 µg/mL (≈ 99.5 µM).
Cl.O=C(NCCCn1ccnc1)c1ccc(F)cc1 showed a solubility kinetic of over 42.6 µg/mL.
O=[N+]([O-])c1cc(-c2ncccn2)c([N+](=O)[O-])s1 gave a solubility kinetic of 34.8 µg/mL (≈ 138 µM).
For CCN(C(=O)C12CC3CC(CC(C3)C1)C2)C1CCS(=O)(=O)C1 (centres undefined), the solubility kinetic was over 48.8 µg/mL.
c1ccc(CNc2ncnc3sc4c(c23)CCCC4)nc1 gave a solubility kinetic of 6.7 µg/mL (≈ 22.6 µM).
CN(C)c1nc(N)c([N+](=O)[O-])c(NCC2CCCO2)n1 (centres undefined) gave a solubility kinetic of 40.5 µg/mL (≈ 143 µM).
For COC(=O)c1ccc(CN2CCCCC2)cc1, the solubility kinetic was 28.9 µg/mL (≈ 124 µM).
O=C(CN1C(=O)C2CCCCC2C1=O)Nc1nccs1 (centres undefined) gave a solubility kinetic of over 44 µg/mL.
Work on CCOc1ccc(C(=O)Nc2nc(C)c(C(=O)OC)s2)cc1 yielded a solubility kinetic of under 0.3 µg/mL.
Molecule Cc1nc(Nc2nc3ccccc3o2)nc(C)c1C has a solubility kinetic of 15.8 µg/mL (≈ 62.1 µM).
For CCCCc1nc(Cl)c(C#N)c2c1CCC2, the solubility kinetic was 3.4 µg/mL (≈ 14.5 µM).
COc1ccccc1OC(C)C(=O)N1CCc2ccccc21 (centres undefined) gave a solubility kinetic of 3.3 µg/mL (≈ 11.1 µM).
In the case of O=C(O)c1ccccc1NC(=O)N1CCOCC1, the solubility kinetic is reported as over 37.5 µg/mL.
Molecule CCn1c(NC(=O)C(C)C)c2ccccc2nc1=O has a solubility kinetic of over 38.9 µg/mL.
In the case of O=c1oc(-c2cccc([N+](=O)[O-])c2)nc2ccccc12, the solubility kinetic is reported as 3.2 µg/mL (≈ 11.9 µM).
Work on COc1cccc(CNCCc2c[nH]c3ccccc23)c1 yielded a solubility kinetic of 35.8 µg/mL (≈ 128 µM).
For COc1ccc(S(=O)(=O)N(C)CC(=O)NC2CC2)cc1OC, the solubility kinetic was over 49.3 µg/mL.
O=C(COc1ccccc1)Nc1ccccc1C(=O)NC1CC1 gave a solubility kinetic of 6.4 µg/mL (≈ 20.6 µM).
COc1ccccc1NC(=O)COc1ccccc1C(=O)Nc1ccccc1 gave a solubility kinetic of 5.9 µg/mL (≈ 15.7 µM).
CCc1ccc(NC(=S)NCC2CCCN2CC)cc1 (centres undefined) gave a solubility kinetic of over 43.7 µg/mL.
CN(C)c1cc[n+](CC(=O)Nc2ccccc2C(F)(F)F)cc1.[Cl-] gave a solubility kinetic of over 54 µg/mL.
With O=C(NC1CC1)C1CC(=O)N(c2ccc(F)cc2)C1 (centres undefined) the solubility kinetic was 37.6 µg/mL (≈ 143 µM).
With CC(C)N(Cc1cc2ccccc2[nH]c1=O)C(=O)c1ccco1 the solubility kinetic was over 46.6 µg/mL.
In the case of O=C(NCCCN1CCOCC1)C(=O)NCCc1ccccc1, the solubility kinetic is reported as over 47.9 µg/mL.
With Cc1ccc(C(OC(=O)c2ccco2)C(=O)NC2CCCC2)cc1 (centres undefined) the solubility kinetic was 2 µg/mL (≈ 6.11 µM).
In the case of O=S(=O)(/C=C/c1ccccc1)N1CCOCC1, the solubility kinetic is reported as over 38 µg/mL.
For Cc1ccc2c(=O)[nH]c(Nc3nc(C)cc(-c4ccccc4)n3)nc2c1, the solubility kinetic was under 0.1 µg/mL.
In the case of CS(=O)(=O)N1CCC(C(=O)N2CCN(Cc3ccccc3)CC2)CC1, the solubility kinetic is reported as over 54.8 µg/mL.
Molecule COc1cc(OC)nc(Oc2ccc(N)c(C)c2)n1 has a solubility kinetic of over 39.2 µg/mL.
In the case of COc1ccc(-c2nc3cc([N+](=O)[O-])ccc3o2)cc1OC, the solubility kinetic is reported as under 0.3 µg/mL.
In the case of CC(=O)Nc1cccc(Oc2ccc3c(c2)C(=O)NC3=O)c1, the solubility kinetic is reported as over 44.4 µg/mL.
Work on COc1ccc(Cl)cc1C(=O)NCCCN1CCOCC1 yielded a solubility kinetic of over 46.9 µg/mL.
CC(OC(=O)c1ccc(Cl)nc1)C(=O)NC1CCCC1 (centres undefined) showed a solubility kinetic of 24.7 µg/mL (≈ 83.2 µM).
For N#Cc1ccc(C(=O)NCC2CCCCC2)cc1, the solubility kinetic was 19.9 µg/mL (≈ 82.1 µM).
For Cc1cc(C(=O)N2CCC(C(=O)O)CC2)c(C(F)(F)F)o1, the solubility kinetic was over 45.8 µg/mL.
For C/C(N)=C(/C#N)C(=O)COC(=O)c1cccc(C)c1O, the solubility kinetic was 1.5 µg/mL (≈ 5.47 µM).
In the case of O=C(CCC(=O)N1CCc2ccccc2C1)NCCc1ccc(Cl)cc1, the solubility kinetic is reported as over 55.6 µg/mL.
Work on O=[N+]([O-])c1ccc2oc(C(O)c3cccc(Cl)c3)cc2c1 (centres undefined) yielded a solubility kinetic of 19.4 µg/mL (≈ 63.9 µM).
CN1C2=CC=CC=CC2=[N+](C)C12C([N+](=O)[O-])=CC(=[N+]([O-])[O-])C=C2[N+](=O)[O-] (centres undefined) gave a solubility kinetic of 0.7 µg/mL (≈ 1.95 µM).
Work on O=C(O)C1C2C=CC(C2)C1C(=O)NCc1cccc(Cl)c1 (centres undefined) yielded a solubility kinetic of 43.3 µg/mL (≈ 142 µM).
CC(C)C[C@H]1C(=O)N2CCCC2[C@]2(O)O[C@](NC(=O)[C@@H]3C=C4c5cccc6[nH]cc(c56)CC4N(C)C3)(C(C)C)C(=O)N12 (some centres undefined) gave a solubility kinetic of 24.1 µg/mL (≈ 41.9 µM).
For N/C(Cc1nc(-c2ccc(F)cc2)cs1)=N\O, the solubility kinetic was 36.4 µg/mL (≈ 145 µM).
For O=C1CC(c2ccccc2)Cc2nc(NC3CC3)ncc21 (centres undefined), the solubility kinetic was 2.7 µg/mL (≈ 9.67 µM).
Work on CCCNC(=O)CSc1nc2ccccc2c(=O)n1CCC yielded a solubility kinetic of 27.1 µg/mL (≈ 84.8 µM).
For CC(C)COc1ccc(C(=O)OCC(=O)NCc2cccs2)cc1, the solubility kinetic was 1.1 µg/mL (≈ 3.17 µM).
With CN(C(=O)CSc1ncn[nH]1)C1(C#N)CCCCC1 the solubility kinetic was over 41.9 µg/mL.
O=C1CSC(c2cccc([N+](=O)[O-])c2)N1c1ccccc1F (centres undefined) showed a solubility kinetic of 37.7 µg/mL (≈ 118 µM).
Molecule COc1cc(S(=O)(=O)NC2CCCCC2C)ccc1F (centres undefined) has a solubility kinetic of over 45.2 µg/mL.
With COc1ccc(CC(=O)N2CCCC2)c(OC)c1 the solubility kinetic was 36.6 µg/mL (≈ 147 µM).
CCOCCCNC(=O)CN1CCN(Cc2ccc(Cl)cc2)C1=O gave a solubility kinetic of 46.6 µg/mL (≈ 132 µM).
In the case of O=C(Nc1cccc(O)c1)c1cccc(C(=O)Nc2cccc(O)c2)c1, the solubility kinetic is reported as 1.8 µg/mL (≈ 5.17 µM).
For Cc1noc(NS(=O)(=O)c2ccc(NC(=O)C(C)C)cc2)c1C, the solubility kinetic was over 50.6 µg/mL.
CC(CCc1ccccc1)NC(=O)C(=O)c1c[nH]c2ccccc12 (centres undefined) gave a solubility kinetic of 0.9 µg/mL (≈ 2.81 µM).
In the case of NS(=O)(=O)c1ccc(O)c(NC(=O)c2ccc([N+](=O)[O-])o2)c1, the solubility kinetic is reported as over 49.1 µg/mL.
Molecule O=C(O)c1cc2c(cc1NC(=O)C1CCCC1)OCCO2 has a solubility kinetic of over 43.7 µg/mL.
CC(NC(=O)C(=O)NCC1CCCO1)c1ccccc1 (centres undefined) gave a solubility kinetic of over 41.5 µg/mL.
O=C(Nc1nccs1)C1CCN(S(=O)(=O)c2ccccc2)CC1 showed a solubility kinetic of 43.7 µg/mL (≈ 124 µM).
In the case of CC1CCCC(NC(=O)CN2C(=O)NC(C)(c3cc(F)ccc3F)C2=O)C1C (centres undefined), the solubility kinetic is reported as over 59 µg/mL.
Cc1c(NS(=O)(=O)c2cc(C(=O)N(C)Cc3ccccc3)ccc2Cl)c(=O)n(-c2ccccc2)n1C gave a solubility kinetic of over 78.8 µg/mL.
Cn1cnc(S(=O)(=O)Nc2ccccc2N2CCOCC2)c1 showed a solubility kinetic of over 48.4 µg/mL.
O=c1oc(Nc2cccc(Cl)c2)nc2ccccc12 showed a solubility kinetic of 0.5 µg/mL (≈ 1.83 µM).
Work on C/C(=N\OCc1ccc(C#N)cc1)c1ccccc1 yielded a solubility kinetic of under 0.3 µg/mL.
For CN(Cc1c(F)cccc1Cl)C(=O)c1ccc2ccccc2n1, the solubility kinetic was over 49.3 µg/mL.
Work on COc1ccc2[nH]cc(CCNC(=O)Cc3c(F)cccc3Cl)c2c1 yielded a solubility kinetic of 3.9 µg/mL (≈ 10.8 µM).
In the case of CN(CC(=O)Nc1cccc(F)c1)C(=O)c1sc2ccccc2c1Cl, the solubility kinetic is reported as 23 µg/mL (≈ 61 µM).
For O=C(COc1ccccc1)Nc1cc(Cl)ccc1Cl, the solubility kinetic was under 0.6 µg/mL.
For CCN(CC(=O)NCc1ccc(Cl)cc1)C(=O)c1sccc1C, the solubility kinetic was over 52.6 µg/mL.
For CCOC(=O)c1cccc(NC(=O)Nc2ccc3c(c2)C(=O)OC3)c1, the solubility kinetic was under 0.4 µg/mL.
In the case of CC(N=Cc1c(O)n(C2CC2)c(=S)[nH]c1=O)c1ccccc1 (centres undefined), the solubility kinetic is reported as 2.6 µg/mL (≈ 8.24 µM).
Work on COc1ccccc1CNC(=O)COC(=O)c1nccnc1N yielded a solubility kinetic of 39.7 µg/mL (≈ 126 µM).
Molecule CCC(C)NC(=O)Cc1c(OC)ccc2cc(Br)ccc12 (centres undefined) has a solubility kinetic of under 0.8 µg/mL.
Work on CC(C)C1C(=O)CC(c2ccccc2)NC1c1ccccc1 (centres undefined) yielded a solubility kinetic of 1.6 µg/mL (≈ 5.45 µM).
